Laboratory results reported in ChEMBL document CHEMBL3580636, “Discovery of a Potent Class of PI3Kα Inhibitors with Unique Binding Mode via Encoded Library Technology (ELT)” (ACS Med Chem Lett, 2015).
pIC50: −log10 of the molar value.

Tests used:
[1] = target: Phosphatidylinositol 4,5-bisphosphate 3-kinase catalytic subunit alpha isoform (Homo sapiens, UniProt P42336, H1047R); test: Inhibition of PI3Kalpha H1047R mutant (unknown origin)
[2] = target: Phosphatidylinositol 4,5-bisphosphate 3-kinase catalytic subunit alpha isoform (Homo sapiens, UniProt P42336); test: Inhibition of wild type his-tagged PI3Kalpha (unknown origin)
[3] = target: Phosphatidylinositol 4,5-bisphosphate 3-kinase catalytic subunit gamma isoform (Homo sapiens, UniProt P48736); test: Inhibition of PI3Kgamma (unknown origin)
[4] = target: T1, Phosphatidylinositol 4,5-bisphosphate 3-kinase catalytic subunit delta isoform (Homo sapiens, UniProt O00329); test: Inhibition of PI3Kdelta (unknown origin)
T1 sequence (O00329 whole entry): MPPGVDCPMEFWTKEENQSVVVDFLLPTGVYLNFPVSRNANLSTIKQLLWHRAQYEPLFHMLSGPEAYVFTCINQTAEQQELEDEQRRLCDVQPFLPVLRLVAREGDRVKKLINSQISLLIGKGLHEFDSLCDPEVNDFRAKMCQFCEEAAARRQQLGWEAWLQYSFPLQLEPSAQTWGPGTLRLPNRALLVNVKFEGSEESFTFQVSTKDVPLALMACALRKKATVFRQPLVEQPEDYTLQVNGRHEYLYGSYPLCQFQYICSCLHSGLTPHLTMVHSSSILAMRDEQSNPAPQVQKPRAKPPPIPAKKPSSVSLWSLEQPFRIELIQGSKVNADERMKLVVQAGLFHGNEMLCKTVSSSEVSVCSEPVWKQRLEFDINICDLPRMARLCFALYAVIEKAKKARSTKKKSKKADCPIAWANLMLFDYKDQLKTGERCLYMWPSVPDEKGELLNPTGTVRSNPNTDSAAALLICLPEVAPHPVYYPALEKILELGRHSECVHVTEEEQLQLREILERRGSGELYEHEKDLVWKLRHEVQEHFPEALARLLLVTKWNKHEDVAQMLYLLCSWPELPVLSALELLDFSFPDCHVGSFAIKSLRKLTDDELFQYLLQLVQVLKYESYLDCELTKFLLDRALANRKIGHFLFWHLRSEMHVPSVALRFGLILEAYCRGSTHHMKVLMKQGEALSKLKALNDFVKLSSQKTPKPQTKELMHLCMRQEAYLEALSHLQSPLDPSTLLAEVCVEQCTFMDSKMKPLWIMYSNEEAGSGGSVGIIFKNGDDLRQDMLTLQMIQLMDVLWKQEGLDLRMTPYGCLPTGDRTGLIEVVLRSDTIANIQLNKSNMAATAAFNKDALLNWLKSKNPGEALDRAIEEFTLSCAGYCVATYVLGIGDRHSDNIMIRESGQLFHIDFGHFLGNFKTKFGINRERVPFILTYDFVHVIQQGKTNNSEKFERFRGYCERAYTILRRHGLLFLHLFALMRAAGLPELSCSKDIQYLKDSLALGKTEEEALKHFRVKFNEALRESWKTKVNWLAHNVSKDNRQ

[5] = target: Phosphatidylinositol 4,5-bisphosphate 3-kinase catalytic subunit beta isoform (Homo sapiens, UniProt P42338); test: Inhibition of PI3Kbeta (unknown origin)
[6] = species on record: Homo sapiens; test: Selectivity ratio of IC50 for PI3Kbeta (unknown origin) to IC50 for wild type his-tagged PI3Kalpha (unknown origin)
[7] = species on record: Homo sapiens; test: Selectivity ratio of IC50 for PI3Kdelta (unknown origin) to IC50 for wild type his-tagged PI3Kalpha (unknown origin)

Phosphatidylinositol 4,5-bisphosphate 3-kinase catalytic subunit gamma isoform, sequence (P48736 whole entry, canonical isoform): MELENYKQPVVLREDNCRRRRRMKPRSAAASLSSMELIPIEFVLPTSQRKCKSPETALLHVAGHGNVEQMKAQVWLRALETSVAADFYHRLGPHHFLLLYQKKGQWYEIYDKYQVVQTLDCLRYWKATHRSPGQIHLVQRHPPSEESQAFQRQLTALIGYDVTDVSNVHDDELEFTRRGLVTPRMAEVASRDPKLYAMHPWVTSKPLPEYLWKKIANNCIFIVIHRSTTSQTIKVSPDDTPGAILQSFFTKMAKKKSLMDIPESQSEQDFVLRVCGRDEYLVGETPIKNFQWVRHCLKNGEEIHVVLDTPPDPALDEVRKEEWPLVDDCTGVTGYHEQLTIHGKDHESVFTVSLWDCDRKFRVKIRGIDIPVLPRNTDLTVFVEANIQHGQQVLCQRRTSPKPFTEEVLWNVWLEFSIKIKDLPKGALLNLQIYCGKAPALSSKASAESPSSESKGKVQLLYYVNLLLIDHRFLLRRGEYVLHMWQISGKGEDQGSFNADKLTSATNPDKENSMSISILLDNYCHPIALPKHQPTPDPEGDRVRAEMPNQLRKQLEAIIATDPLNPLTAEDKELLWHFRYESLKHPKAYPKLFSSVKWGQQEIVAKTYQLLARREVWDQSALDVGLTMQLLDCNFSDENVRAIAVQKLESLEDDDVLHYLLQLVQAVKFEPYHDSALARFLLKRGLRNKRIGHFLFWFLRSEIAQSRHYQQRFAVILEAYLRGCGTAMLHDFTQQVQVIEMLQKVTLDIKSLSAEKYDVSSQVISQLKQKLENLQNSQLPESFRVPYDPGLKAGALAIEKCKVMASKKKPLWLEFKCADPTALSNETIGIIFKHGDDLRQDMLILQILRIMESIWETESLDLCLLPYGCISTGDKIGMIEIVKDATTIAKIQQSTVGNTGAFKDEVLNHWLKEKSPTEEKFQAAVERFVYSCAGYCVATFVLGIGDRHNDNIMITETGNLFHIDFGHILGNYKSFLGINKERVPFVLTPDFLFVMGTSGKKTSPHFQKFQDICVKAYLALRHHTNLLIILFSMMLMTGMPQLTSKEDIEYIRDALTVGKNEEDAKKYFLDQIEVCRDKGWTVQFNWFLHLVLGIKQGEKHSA
Phosphatidylinositol 4,5-bisphosphate 3-kinase catalytic subunit beta isoform, sequence (P42338 whole entry, canonical isoform): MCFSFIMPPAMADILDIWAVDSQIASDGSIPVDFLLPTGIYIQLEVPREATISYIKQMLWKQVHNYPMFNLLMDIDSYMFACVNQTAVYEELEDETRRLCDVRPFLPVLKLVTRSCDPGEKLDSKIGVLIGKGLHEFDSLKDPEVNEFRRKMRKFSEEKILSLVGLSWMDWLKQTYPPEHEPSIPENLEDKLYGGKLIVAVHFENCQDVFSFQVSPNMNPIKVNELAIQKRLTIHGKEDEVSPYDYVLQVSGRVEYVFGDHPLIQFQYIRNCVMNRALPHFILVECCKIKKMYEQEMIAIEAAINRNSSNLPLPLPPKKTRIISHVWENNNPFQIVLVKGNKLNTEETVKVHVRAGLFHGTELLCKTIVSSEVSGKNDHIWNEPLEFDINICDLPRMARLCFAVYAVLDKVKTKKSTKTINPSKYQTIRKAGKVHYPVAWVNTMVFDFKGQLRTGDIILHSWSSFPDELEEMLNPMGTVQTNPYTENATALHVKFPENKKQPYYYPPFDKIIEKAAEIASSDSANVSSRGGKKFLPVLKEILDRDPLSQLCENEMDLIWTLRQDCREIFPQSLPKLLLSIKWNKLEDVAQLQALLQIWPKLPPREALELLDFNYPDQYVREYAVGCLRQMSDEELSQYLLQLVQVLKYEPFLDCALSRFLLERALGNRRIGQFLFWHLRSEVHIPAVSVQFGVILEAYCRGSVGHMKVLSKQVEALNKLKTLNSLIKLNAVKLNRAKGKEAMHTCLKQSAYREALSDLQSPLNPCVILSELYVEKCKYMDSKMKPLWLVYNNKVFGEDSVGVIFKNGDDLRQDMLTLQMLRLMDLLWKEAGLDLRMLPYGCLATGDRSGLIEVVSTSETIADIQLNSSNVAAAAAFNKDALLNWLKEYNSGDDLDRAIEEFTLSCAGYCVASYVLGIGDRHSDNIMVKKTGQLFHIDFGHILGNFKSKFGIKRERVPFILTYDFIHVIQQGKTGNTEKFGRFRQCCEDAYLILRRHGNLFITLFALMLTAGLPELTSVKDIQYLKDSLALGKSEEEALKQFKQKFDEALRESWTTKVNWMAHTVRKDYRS
Phosphatidylinositol 4,5-bisphosphate 3-kinase catalytic subunit alpha isoform (Homo sapiens, UniProt P42336, H1047R), sequence (P42336 whole entry H1047R, canonical isoform): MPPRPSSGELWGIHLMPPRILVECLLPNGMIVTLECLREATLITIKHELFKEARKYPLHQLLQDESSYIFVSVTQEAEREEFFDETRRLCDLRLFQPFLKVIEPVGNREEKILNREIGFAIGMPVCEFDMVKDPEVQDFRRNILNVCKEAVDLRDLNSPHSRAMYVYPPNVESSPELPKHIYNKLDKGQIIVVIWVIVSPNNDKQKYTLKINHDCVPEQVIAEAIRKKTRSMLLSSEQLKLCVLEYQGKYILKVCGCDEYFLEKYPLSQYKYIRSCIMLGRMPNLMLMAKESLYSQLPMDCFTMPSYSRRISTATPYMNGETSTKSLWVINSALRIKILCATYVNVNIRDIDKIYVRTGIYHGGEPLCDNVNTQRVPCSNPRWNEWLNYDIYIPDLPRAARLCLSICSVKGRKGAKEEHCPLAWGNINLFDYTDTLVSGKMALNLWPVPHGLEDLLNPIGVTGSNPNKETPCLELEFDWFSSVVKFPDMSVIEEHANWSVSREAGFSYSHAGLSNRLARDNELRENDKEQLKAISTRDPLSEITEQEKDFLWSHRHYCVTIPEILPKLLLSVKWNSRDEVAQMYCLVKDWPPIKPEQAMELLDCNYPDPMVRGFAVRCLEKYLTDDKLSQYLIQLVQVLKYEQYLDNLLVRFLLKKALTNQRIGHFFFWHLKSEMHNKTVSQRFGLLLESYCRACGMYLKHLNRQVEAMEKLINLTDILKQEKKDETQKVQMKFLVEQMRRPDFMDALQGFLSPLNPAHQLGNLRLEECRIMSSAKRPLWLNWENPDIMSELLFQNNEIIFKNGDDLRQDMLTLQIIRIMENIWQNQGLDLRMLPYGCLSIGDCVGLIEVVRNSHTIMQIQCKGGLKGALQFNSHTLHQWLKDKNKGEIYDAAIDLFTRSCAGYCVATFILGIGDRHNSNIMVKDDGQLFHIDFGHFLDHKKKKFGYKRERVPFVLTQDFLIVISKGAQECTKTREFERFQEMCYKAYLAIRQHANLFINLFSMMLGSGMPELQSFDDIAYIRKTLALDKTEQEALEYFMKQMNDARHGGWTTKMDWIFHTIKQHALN
Phosphatidylinositol 4,5-bisphosphate 3-kinase catalytic subunit alpha isoform (Homo sapiens, UniProt P42336), sequence (P42336 whole entry, canonical isoform): as the sequence (P42336 whole entry H1047R, canonical isoform) above, with R1047H counted along it

Compound	pIC50 [1]	pIC50 [2]	pIC50 [3]	pIC50 [4]	pIC50 [5]	Ratio IC50 [6]	Ratio IC50 [7]
COC(=O)c1cc(I)cc(CNc2ccc(S(=O)(=O)Nc3nnc(C)s3)cc2)c1	4.89	< 4.60					
COc1ccc(-c2cc(CNc3ccc(S(=O)(=O)Nc4nnc(C)s4)cc3)cc(C(=O)NC(CO)CO)c2)cn1	7.80	7.80	7.60	7.70	6.10		
COc1ccc(-c2cc(CNc3ccc(S(=O)(=O)Nc4nnc(C)s4)cc3)cc(C(=O)O)c2)cn1	8.07	8.00	8.59	7.23	6.83	5	5
COc1ccc(-c2cc(CNc3ccc(S(=O)(=O)Nc4nnc(C)s4)cc3)cc(C(=O)NCCC(C)C)c2)cn1	7.96	8.02	8.00	8.40	6.40		
Cc1nnc(NS(=O)(=O)c2ccc(NCc3cc(C(=O)O)cc(-c4ccc5c(c4)OCO5)c3)cc2)s1		7.40	8.40	6.70	6.30	5	5
COc1ccc(-c2cc(CNc3ccc(S(=O)(=O)N(C)c4nnc(C)s4)cc3)cc(C(=O)NCCc3ccccc3F)c2)cn1	< 5.00	5.70	< 5.00	5.70	< 5.00		
COc1ccc(-c2cc(CNc3ccc(S(=O)(=O)Nc4nnc(C)s4)cc3)cc(C(=O)NCCc3ccccc3F)c2)cn1	7.89	8.19	8.36	8.00	6.15		
COc1ccc(-c2cccc(CNc3ccc(S(=O)(=O)Nc4nnc(C)s4)cc3)c2)cn1		6.99	7.28	7.36	6.12		
COC(=O)c1cc(CNc2ccc(S(=O)(=O)Nc3nnc(C)s3)cc2)cc(-c2ccc(OC)nc2)c1	7.52	7.34					
Cc1nnc(NS(=O)(=O)c2ccc(NCc3cc(C(=O)O)cc(-c4ccc5c(c4)OCCO5)c3)cc2)s1		7.90	8.70	7.20	6.90	5	5
